Patent publication US20150231236A1, “METHODS FOR TREATING PATIENTS WITH HYPERCHOLESTEROLEMIA THAT IS NOT ADEQUATELY CONTROLLED BY MODERATE-DOSE STATIN THERAPY” (Regeneron Pharmaceuticals, Inc., priority 2014, published 2015)

Key:
[1] = test system: patients with hypercholesterolemia at high CV risk not adequately controlled with atorvastatin (20 mg or 40 mg); test: Example 2: randomized, double-blind trial, lipid efficacy of mAb316P add-on to atorvastatin vs EZE add-on, atorvastatin dose doubling or switch to rosuvastatin; type: in vivo, human; details: for reduced LDL-C levels by: week 24, add-on mAb316P
Method: The present study was a randomized, double-blind, active-comparator, parallel-group study in patients at high CV risk with non-FH or heFH who are not adequately controlled with atorvastatin (20 mg or 40 mg) with or without other lipid-modifying therapy (LMT) (excluding EZE). The study design is illustrated in FIG. 1. Patients who entered the study were taking either atorvastatin 20 mg or atorvastatin 40 mg. The former patients were randomized to 1 of 3 treatment arms (arms 1 to 3); the latter patients were randomized to 1 of 4 treatment arms (arms 4 to 7). The treatment arms are as follows:
(1) mAb316P+atorvastatin 20 mg+placebo-EZE; (2) Placebo-mAb316P+atorvastatin 40 mg+placebo-EZE; and (3) Placebo-mAb316P+atorvastatin 20 mg+EZE 10 mg.
(4) mAb316P+atorvastatin 40 mg+placebo-EZE; (5) Placebo-mAb316P+atorvastatin 80 mg+placebo-EZE; (6). Placebo-mAb316P+rosuvastatin 40 mg+placebo-EZE; and (7) Placebo-mAb316P+atorvastatin 40 mg+EZE 10 mg.
(B) a double-blind treatment period of 24 weeks. Each patient received a SC injection Q2W (mAb316P or placebo-mAb316P) and was administered (or instructed to take) 2 oral blinded medications daily (a statin [atorvastatin or rosuvastatin] and EZE or placebo-EZE). The first injection of mAb316P or placebo-mAb316P was administered at the clinical site on day 1, after study assessments were completed, and as soon as possible after the patient was randomized into the study. The patient/caregiver administered subsequent injections outside of the clinic according to the dosing schedule. On days where the clinic study visit coincided with dosing, the dose of study drugs (injectable and oral) were administered after all study assessments had been performed and all laboratory samples collected. The last dose of mAb316P or placebo-mAb316P was administered at week 22. The last dose of daily oral study drugs was administered at week 24. At week 12, based on their baseline CV risk, certain patients randomized to mAb316P in a blinded manner, had their dose increased as follows:
Each patient received a subcutaneous (SC) injection once every two weeks (Q2W) (mAb316P or placebo-mAb316P) and took 2 oral blinded medications daily (a statin [atorvastatin or rosuvastatin] and EZE or placebo-EZE).
The injectable study treatment was a single SC injection of 1 mL for a 75 mg or 150 mg dose of mAb316P or placebo-mAb316P provided in an auto-injector, administered in the abdomen, thigh, or outer area of the upper arm. The first injection of study drug was administered at the clinical site, as soon as possible after the patient was randomized into the study. The patient was monitored at the clinical site for at least 30 minutes following the first injection. The patient/caregiver administered subsequent injections outside of the clinic, according to the dosing schedule. On days where the clinic study visit coincided with dosing, the dose of study drug was administered after all study assessments have been performed and all laboratory samples collected.
The dose of mAb316P was increased, in a blinded manner, from 75 mg to 150 mg SC Q2W, starting at week 12, based on baseline CV risk in the following circumstances:
(§1) The primary efficacy endpoint was the percent change in calculated LDL-C from baseline to week 24, which is defined as: 100× (calculated LDL-C value at week 24−calculated LDL-C value at baseline)/calculated LDL-C value at baseline. The baseline calculated LDL-C value was the last LDL-C level obtained before the first double-blind study drug injection. The calculated LDL-C at week 24 will be the LDL-C level obtained within the week 24 analysis window and during the main efficacy period. The main efficacy period was defined as the time from the first double-blind study drug injection up to 21 days after the last double-blind study drug injection or up to the upper limit of the week 24 analysis window, whichever comes first.
Total-C, HDL-C, TG, ApoB, ApoA-1, and Lp (a) were directly measured by a central laboratory. […]

[2] = test system: patients with hypercholesterolemia at high CV risk not adequately controlled with atorvastatin (20 mg or 40 mg); test: Example 2: safety, treatment-emergent adverse events in pooled treatment groups; details: Safety Population, pooled treatment groups
Method: For the pooled data, three treatment groups are formed by combining treatment arms regardless of the atorvastatin doses as follows:
(2) EZE treatment group: pooling EZE+atorva 20 mg arm and EZE+atorva 40 mg arm;

[3] = test system: patients with hypercholesterolemia at high CV risk not adequately controlled with rosuvastatin (10 mg or 20 mg); test: Example 3: randomized, double-blind trial, lipid efficacy of mAb316P add-on to rosuvastatin vs EZE add-on or rosuvastatin dose doubling; type: in vivo, human; details: for Proportion of Patients Reaching LDL-C goal (%): week 24, LDL-C <70 mg/dL very high risk or <100 mg/dL high risk
Method: The present study was a randomized, double-blind, active-comparator, parallel-group study in patients at high CV risk with non-FH or heFH who are not adequately controlled with rosuvastatin (10 mg or 20 mg) with or without other lipid-modifying therapy (LMT) (excluding EZE). The study design is illustrated in FIG. 2. Patients who entered the study were taking either rosuvastatin 10 mg or rosuvastatin 20 mg. The former patients were randomized to 1 of 3 treatment arms (arms 1 to 3); the latter patients were randomized to 1 of 3 treatment arms (arms 4 to 6). The treatment arms are as follows:
(B) a double-blind treatment period of 24 weeks. […] The patient/caregiver administered subsequent injections outside of the clinic according to the dosing schedule. […] The last dose of daily oral study drugs was administered at week 24.
The first injection of study drug was administered at the clinical site, as soon as possible after the patient was randomized into the study. The patient was monitored at the clinical site for at least 30 minutes following the first injection. The patient/caregiver administered subsequent injections outside of the clinic, according to the dosing schedule.
as §1, with “24 was” for “24 will be”, “period is” for “period was”
Total-C, HDL-C, TG, ApoB, ApoA-1, and Lp(a) were directly measured by a central laboratory. LDL-C was calculated using the Friedewald formula. […] Non-HDL-C was calculated by subtracting HDL-C from the total-C. Ratio ApoB/ApoA-1 was calculated.
For clarification, the ITT analysis is defined for patients in the ITT population and includes all endpoint assessments in an analysis window, regardless of study treatment dosing status (i.e. includes post-treatment assessments). The on-treatment analysis is defined for patients in the mITT population and includes all endpoint assessments from the first double-blind study drug (capsule or injection, whichever comes first) up to 21 days after the last double-blind study drug injection or 3 days after the last capsule intake, whichever comes first (i.e. includes assessments in the efficacy treatment period).

[4] = test system: patients with hypercholesterolemia at high CV risk not adequately controlled with rosuvastatin (10 mg or 20 mg); test: Example 3: safety, treatment-emergent adverse events in pooled treatment groups; details: Safety Population; pooled treatment groups

SMILES: O=C1[C@H](CC[C@H](O)c2ccc(F)cc2)[C@@H](c2ccc(O)cc2)N1c1ccc(F)cc1 [EZE, ezetimibe, reference compound]
- LDL-C reductions observed ([1]; across atorvastatin 20 mg and 40 mg regimens, ezetimibe add-on groups, atorvastatin dose increase groups): 20.5-22.6%
- reduced LDL-C levels by ([1]; atorvastatin 20 mg regimen, add-on ezetimibe or doubling of atorvastatin dose): 20.5%
- reduced LDL-C levels by ([1]; atorvastatin 40 mg regimen, add-on ezetimibe, doubling of atorvastatin dose or switch to rosuvastatin 40 mg): 22.6%
- General Allergic TEAEs (SMQ Hypersensitivity) [2]: 5 (5.0%) patients (%)
- SOC Injury, poisoning and procedural complications [2]: 12 (11.9%) patients (%)
- SOC Musculoskeletal and connective tissue disorders [2]: 13 (12.9%) patients (%)
- SOC Neoplasms benign, malignant and unspecified (incl cysts and polyps) [2]: 0 patients (%)
- SOC Nervous system disorders [2]: 6 (5.9%) patients (%)
- TEAEs [2]: 65 (64.4%) patients (%)
- Treatment-emergent SAEs [2]: 7 (6.9%) patients (%)
- Treatment-emergent injection site reactions (ISRs) [2]: 3 (3.0%) patients (%)
- Treatment-emergent neurologic disorders [2]: 1 (1.0%) patients (%)
- discontinued study treatment early due to a treatment emergent adverse event (TEAE) [2]: 4 (4.0%) patients (%)
- patient deaths [2]: Two
- Treatment-emergent cardiovascular events adjudicated positively ([2]; ischemia driven coronary revascularization procedure): 1 (1.0%) patients (%)
- Proportion of Patients Reaching LDL-C goal (%) ([3]; Baseline Rosuvastatin 10 mg): 57.2%
- Proportion of Patients Reaching LDL-C goal (%) ([3]; Baseline Rosuvastatin 20 mg): 52.2%
- proportion of patients who reached LDL-C level of <70 mg/dL (1.81 mmol/L) at Week 24 ([3]; baseline rosuvastatin 10 mg regimen): 43.1%
- proportion of patients who reached LDL-C level of <70 mg/dL (1.81 mmol/L) at Week 24 ([3]; baseline rosuvastatin 20 mg regimen): 43.6%
- General Allergic TEAEs [4]: 2 (2.0%) patients (%)
- SOC General disorders and administration site conditions [4]: 8 (7.9%) patients (%)
- SOC Psychiatric disorders [4]: 4 (4.0%) patients (%)
- SOC Respiratory, thoracic and mediastinal disorders [4]: 2 (2.0%) patients (%)
- SOC Skin and subcutaneous tissue disorders [4]: 5 (5.0%) patients (%)
- TEAEs [4]: 54 (53.5%) patients (%)
- Treatment-emergent SAEs [4]: 8 (7.9%) patients (%)
- Treatment-emergent cardiovascular events adjudicated positively [4]: 1 (1.0%) patients (%)
- Treatment-emergent neurocognitive disorders [4]: 1 (1.0%) patients (%)
- Treatment-emergent neurologic disorders [4]: 3 (3.0%) patients (%)
- cough [4]: 0 patients (%)
- discontinued study treatment early due to a treatment emergent adverse event [4]: 8 (7.9%) patients (%)
- injection site reactions (ISRs) [4]: 0 patients (%)
